Reference: the NIST ThermoML archive (doi:10.1016/j.jct.2008.01.003)

Assay: mn = molality of the nth substance listed, in mol/kg
Details: 101 kPa, Liquid

CCCCCCn1cc[n+](C)c1.[Br-] [3-hexyl-1-methyl-1H-imidazolium bromide] + O
Details	mass density, 283.15 K [kg/m3]	mass density, 288.15 K [kg/m3]	mass density, 293.15 K [kg/m3]	mass density, 298.15 K [kg/m3]	mass density, 303.15 K [kg/m3]	speed of sound, 283.15 K [m/s]	speed of sound, 288.15 K [m/s]	speed of sound, 293.15 K [m/s]	speed of sound, 298.15 K [m/s]	speed of sound, 303.15 K [m/s]
m1 = 0.0042	999.919	999.312	998.411	997.246	995.843	1448.7	1467	1483.2	1497.5	1509.8
m1 = 0.0048	999.941	999.334	998.432	997.266	995.864	1448.8	1467.1	1483.2	1497.5	1509.8
m1 = 0.0067	1000.03	999.423	998.518	997.351	995.948	1449.2	1467.4	1483.5	1497.7	1510.1
m1 = 0.0081	1000.1	999.485	998.579	997.413	996.006	1449.3	1467.4	1483.6	1497.7	1510.1
m1 = 0.0139	1000.38	999.762	998.85	997.679	996.267	1450.3	1468.4	1484.5	1498.6	1510.8
m1 = 0.0295	1001.15	1000.52	999.592	998.405	996.983	1452.9	1470.8	1486.7	1500.5	1512.6
m1 = 0.0369	1001.52	1000.88	999.946	998.754	997.324	1453.3	1471.1	1486.8	1500.6	1512.5
m1 = 0.0487	1002.1	1001.45	1000.5	999.3	997.863	1455.3	1473	1488.5	1502.2	1514
m1 = 0.064	1002.84	1002.17	1001.21	999.994	998.545	1457.9	1475.3	1490.7	1504.1	1515.7
m1 = 0.073	1003.27	1002.59	1001.62	1000.4	998.942	1459.4	1476.6	1491.9	1505.2	1516.7
m1 = 0.094	1004.29	1003.59	1002.6	1001.35	999.878	1462.8	1479.8	1494.8	1507.8	1519.2
m1 = 0.1183	1005.45	1004.72	1003.71	1002.44	1000.95	1466.9	1483.5	1498.2	1510.9	1522
m1 = 0.1423	1006.6	1005.85	1004.81	1003.53	1002.01	1470.9	1487.1	1501.4	1513.9	1524.7
m1 = 0.1639	1007.6	1006.82	1005.77	1004.47	1002.94	1474	1490	1504.1	1516.3	1526.9
m1 = 0.2206	1010.25	1009.42	1008.31	1006.95	1005.38	1482.7	1497.9	1511.2	1522.8	1532.7
m1 = 0.2581	1011.96	1011.09	1009.94	1008.55	1006.95	1488.1	1502.7	1515.6	1526.7	1536.2
m1 = 0.3034	1014.04	1013.11	1011.93	1010.5	1008.86	1494.6	1508.7	1521	1531.6	1540.7
m1 = 0.3543	1016.3	1015.32	1014.08	1012.61	1010.93	1501.6	1515	1526.7	1536.8	1545.3
m1 = 0.3874	1017.82	1016.8	1015.53	1014.03	1012.32	1506.1	1519.1	1530.4	1540.1	1548.2
m1 = 0.4492	1020.54	1019.46	1018.13	1016.57	1014.81	1513.7	1525.9	1536.4	1545.4	1552.9
m1 = 0.6269	1028.05	1026.78	1025.28	1023.56	1021.66	1535.2	1545.3	1553.8	1561	1566.8
m1 = 0.8614	1037.26	1035.74	1034.03	1032.12	1030.03	1557.7	1565.1	1571.3	1576.3	1580.2
m1 = 1.001	1042.28	1040.64	1038.8	1036.78	1034.6	1568.5	1574.6	1579.6	1583.5	1586.5
m1 = 1.321	1053.01	1051.1	1049.03	1046.8	1044.42	1586.3	1590.3	1593.4	1595.6	1596.9
m1 = 1.739	1065.23	1063.06	1060.74	1058.31	1055.74	1600	1602.5	1604.1	1604.8	1604.7
m1 = 2.087	1074.16	1071.82	1069.36	1066.78	1064.09	1607.4	1608.9	1609.6	1609.4	1608.4
